# pIC50: −log10 of the molar value.
# Assays:
# [1] = molecular target: T1, human OX1R (Homo sapiens, UniProt O43613); assay: Calcium current (FLIPR) in cells stably expressing OX1 receptor; format: cell-based; conditions: CHO-K1/human OX1R cells; agonist OX-A at EC80; FLIPR Tetra
# T1 construct: expressed in transfected cells; host or cells: CHO-K1
# T1 sequence (O43613 1-425): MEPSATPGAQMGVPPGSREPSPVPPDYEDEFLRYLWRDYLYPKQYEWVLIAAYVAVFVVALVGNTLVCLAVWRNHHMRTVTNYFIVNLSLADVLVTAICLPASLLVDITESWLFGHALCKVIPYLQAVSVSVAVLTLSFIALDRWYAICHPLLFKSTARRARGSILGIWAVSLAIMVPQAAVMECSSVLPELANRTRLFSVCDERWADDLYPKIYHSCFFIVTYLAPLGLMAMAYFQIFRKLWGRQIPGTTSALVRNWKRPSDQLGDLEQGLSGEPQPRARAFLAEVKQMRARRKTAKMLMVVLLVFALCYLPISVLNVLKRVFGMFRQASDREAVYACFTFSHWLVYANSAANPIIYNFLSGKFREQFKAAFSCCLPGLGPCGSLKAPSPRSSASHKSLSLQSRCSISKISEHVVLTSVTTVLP
# Description: (§1) Determination of the effect of the compounds of the present invention on calcium current in cells stably expressing OX1 and OX2 receptors 1. Experimental objective: The inhibitory effect of the compounds on calcium current activity in CHO-K1/human OX1R and CHO-K1/human OX2R cells was detected. 2. […] 3. […] The IC50 of the positive compounds and test compounds was determined. 4. Experimental data processing method: FLIPR Tetra was used to read and collect the fluorescence signal value (RFU). […] 5.
# [2] = molecular target: T2, CYP450 2C19 (Homo sapiens, UniProt P33261); assay: CYP enzyme single point inhibition test, human liver microsomes; format: in vitro ADME; conditions: 20 min incubation
# T2 construct: Human liver microsome incubation system was used; from tissue; host or cells: human liver microsomes
# Description: (§2) Human liver microsome incubation system was used, and the single point method was used to quickly predict the inhibition of compounds on CYP450 enzyme subtypes.
# (§3) NADPH (reduced nicotinamide adenine dinucleotide phosphate) was weighed and added to 100 mM phosphate buffer, with the final concentration being 2.5 mM.
# (§4) Formulation of the reaction liquid of the test compound: The test example compound was weighed, diluted to 10 mM with DMSO, and diluted to 100 µM with 100 mM phosphate buffer.
# (§5) • 1. Liver microsomes (40 µL), substrate (10 µL), and test compound (10 µL) were added to a 96-well plate and the mixture was pre-incubated for 3 min. • 2. NADPH (40 µL) was added. • 3. At 20 min, acetonitrile stop solution containing internal standard (300 µL) was added. • 4. The mixture was centrifuged and the sample was loaded.
# [3] = molecular target: T3, CYP450 2C9 (Homo sapiens, UniProt P11712); assay: as above; format: in vitro ADME; conditions: 20 min incubation
# T3 construct: Human liver microsome incubation system was used; from tissue; host or cells: human liver microsomes
# Description: as §2, §3, §4, §5
# [4] = molecular target: T4, CYP450 2D6 (Homo sapiens, UniProt P10635); assay: as above; format: in vitro ADME; conditions: 20 min incubation
# T4 construct: Human liver microsome incubation system was used; from tissue; host or cells: human liver microsomes
# Description: as §2, §3, §4, §5
# [5] = molecular target: T5, CYP450 1A2 (Homo sapiens, UniProt P05177); assay: as above; format: in vitro ADME; conditions: 20 min incubation
# T5 construct: Human liver microsome incubation system was used; from tissue; host or cells: human liver microsomes
# T5 sequence (P05177 1-516): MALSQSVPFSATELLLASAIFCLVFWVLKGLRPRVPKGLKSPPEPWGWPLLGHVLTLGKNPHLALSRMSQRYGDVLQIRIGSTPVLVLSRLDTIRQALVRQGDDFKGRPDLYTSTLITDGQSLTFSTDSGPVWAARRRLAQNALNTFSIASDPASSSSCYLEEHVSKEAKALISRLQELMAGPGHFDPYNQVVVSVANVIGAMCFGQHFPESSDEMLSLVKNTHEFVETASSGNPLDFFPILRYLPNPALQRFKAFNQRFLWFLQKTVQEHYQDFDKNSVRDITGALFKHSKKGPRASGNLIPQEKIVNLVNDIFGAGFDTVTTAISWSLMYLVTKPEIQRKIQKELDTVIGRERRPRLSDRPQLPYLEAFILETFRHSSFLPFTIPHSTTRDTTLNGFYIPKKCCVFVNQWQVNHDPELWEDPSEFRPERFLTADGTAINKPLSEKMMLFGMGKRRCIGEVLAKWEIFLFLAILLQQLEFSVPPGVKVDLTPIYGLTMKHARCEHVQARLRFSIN
# Description: as §2, §3, §4, §5
# [6] = molecular target: T6, human OX2R (Homo sapiens, UniProt O43614); assay: Calcium current (FLIPR) in cells stably expressing OX2 receptor; format: cell-based; conditions: for pIC50: CHO-K1/human OX2R cells, agonist OX-B at EC80, FLIPR Tetra; for Select fold: OX1R IC50 over OX2R IC50
# T6 construct: expressed in transfected cells; host or cells: CHO-K1
# T6 sequence (O43614 1-444): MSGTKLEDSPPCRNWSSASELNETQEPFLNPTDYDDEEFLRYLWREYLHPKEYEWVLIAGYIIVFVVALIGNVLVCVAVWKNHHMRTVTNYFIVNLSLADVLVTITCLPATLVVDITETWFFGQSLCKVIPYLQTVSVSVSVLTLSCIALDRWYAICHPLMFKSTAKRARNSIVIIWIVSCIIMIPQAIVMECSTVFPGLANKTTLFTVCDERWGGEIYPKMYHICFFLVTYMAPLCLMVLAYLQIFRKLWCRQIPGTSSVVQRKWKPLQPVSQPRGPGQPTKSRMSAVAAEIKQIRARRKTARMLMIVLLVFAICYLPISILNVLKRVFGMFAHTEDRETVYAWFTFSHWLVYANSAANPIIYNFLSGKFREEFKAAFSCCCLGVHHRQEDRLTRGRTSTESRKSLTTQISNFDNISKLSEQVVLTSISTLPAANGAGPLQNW
# Description: as §1
# [7] = in vivo; conditions: male, SD, rat, po, 5 mg/kg
# Description: SD rats were used as test animals to study the pharmacokinetic behaviour of the compounds of the present invention in rat (plasma) after oral administration at a dose of 5 mg/kg.
# The example compound of the present invention, made in house.
# Oral administration drug preparation: 20%HP-β-CD in Water
# HP-β-CD powder (20 g) was weighed and dissolved in purified water (100 mL), and the mixture was homogeneously mixed by vortex and subjected to ultrasound treatment to afford a clear solution.
# The example compound was weighed and added to a 20 mL glass bottle, the solution was added and the mixture was subjected to ultrasound treatment for 10 minutes to afford a colourless clear solution with a concentration of 0.5 mg/mL.
# The brain tissues were rinsed with pre-cooled PBS, wiped dry, weighed, and stored at -80°C.
# • 1) Acetonitrile (160 µL) was added to plasma sample (40 µL) for precipitation, and the mixture was mixed and centrifuged at 3500 × g for 5 to 20 minutes. • 2) The treated supernatant solution was taken and subjected to LC/MS/MS to analyse the concentrations of the test compounds. LC/MS/MS analysis instrument: AB Sciex API 4000 Qtrap.
# • Liquid phase conditions: Shimadzu LC-20AD pump • Chromatographic column: Agilent ZORBAX XDB-C18 (50×2.1 mm, 3.5 µm) mobile phase: liquid A: 0.1% aqueous formic acid solution, liquid B: acetonitrile • Flow rate: 0.4 mL/min • Elution time: 0-4.0 min, the eluent is as follows:
# The main pharmacokinetic parameters were calculated using WinNonlin 6.1.
# T2 sequence (P33261 whole entry): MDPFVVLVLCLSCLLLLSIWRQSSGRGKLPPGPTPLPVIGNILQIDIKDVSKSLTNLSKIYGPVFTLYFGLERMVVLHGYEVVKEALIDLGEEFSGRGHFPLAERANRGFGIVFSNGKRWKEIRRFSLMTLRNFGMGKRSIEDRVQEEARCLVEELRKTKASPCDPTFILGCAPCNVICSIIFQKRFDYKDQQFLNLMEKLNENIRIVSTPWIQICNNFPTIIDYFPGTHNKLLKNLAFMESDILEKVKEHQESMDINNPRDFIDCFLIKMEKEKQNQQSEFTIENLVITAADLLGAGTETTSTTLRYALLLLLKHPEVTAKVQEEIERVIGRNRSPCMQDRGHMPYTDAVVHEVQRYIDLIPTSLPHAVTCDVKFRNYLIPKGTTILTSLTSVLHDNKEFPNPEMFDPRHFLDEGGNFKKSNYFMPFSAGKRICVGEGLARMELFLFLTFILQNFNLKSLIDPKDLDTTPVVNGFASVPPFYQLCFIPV
# T4 sequence (P10635 whole entry): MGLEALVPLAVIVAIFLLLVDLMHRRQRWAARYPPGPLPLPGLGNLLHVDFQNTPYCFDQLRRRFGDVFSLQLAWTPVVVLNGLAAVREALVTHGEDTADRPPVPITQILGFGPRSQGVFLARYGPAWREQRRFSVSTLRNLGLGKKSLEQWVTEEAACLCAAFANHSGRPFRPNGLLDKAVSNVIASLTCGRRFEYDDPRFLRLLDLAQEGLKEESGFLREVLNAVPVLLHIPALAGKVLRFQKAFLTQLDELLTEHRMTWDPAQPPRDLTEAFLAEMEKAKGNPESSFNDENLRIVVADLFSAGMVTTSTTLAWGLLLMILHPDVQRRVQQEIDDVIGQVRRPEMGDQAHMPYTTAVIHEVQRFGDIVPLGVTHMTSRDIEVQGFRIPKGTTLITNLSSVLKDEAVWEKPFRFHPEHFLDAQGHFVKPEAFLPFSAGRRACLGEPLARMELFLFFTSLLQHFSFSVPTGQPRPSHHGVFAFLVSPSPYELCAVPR
# T3 sequence (P11712 whole entry): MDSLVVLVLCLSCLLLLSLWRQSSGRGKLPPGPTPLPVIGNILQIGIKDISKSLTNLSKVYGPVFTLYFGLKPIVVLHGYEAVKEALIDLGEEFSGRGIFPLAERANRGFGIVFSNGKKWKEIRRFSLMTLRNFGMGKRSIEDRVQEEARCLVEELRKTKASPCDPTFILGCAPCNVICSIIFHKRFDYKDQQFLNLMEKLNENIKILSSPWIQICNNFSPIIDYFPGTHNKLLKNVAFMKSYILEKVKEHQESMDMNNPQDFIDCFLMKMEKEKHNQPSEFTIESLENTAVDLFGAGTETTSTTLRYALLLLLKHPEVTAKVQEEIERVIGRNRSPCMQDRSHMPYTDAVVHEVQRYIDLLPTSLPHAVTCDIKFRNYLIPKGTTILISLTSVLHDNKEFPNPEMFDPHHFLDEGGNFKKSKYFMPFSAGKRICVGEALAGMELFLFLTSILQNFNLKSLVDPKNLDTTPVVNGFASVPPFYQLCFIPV
SMILES,pIC50 [1],IC50 [2] [µM],IC50 [3] [µM],IC50 [4] [µM],IC50 [5] [µM],pIC50 [6],Select fold [6],AUC(0-inf) [7] [µg·h/mL],Cmax [7] [µg/mL],Tmax [7] [min]
"CC(C)(O)c1nc(N2C[C@H]3CN(C(=O)c4c(F)cccc4-c4ncccn4)C[C@H]3C2)ncc1F [Compound 9, ((3aR,6aS)-5-(5-fluoro-4-(2-hydroxyprop-2-yl)pyrimidin-2-yl)hexahydropyrrolo[3,4-c]pyrrol-2(1H)-yl)(2-fluoro-6-(pyrimidin-2-yl)phenyl)methanone]",5.97,82.7,> 100,> 100,> 100,8.06,122,0.13,0.124,36
"Cc1nc(N2C[C@H]3CN(C(=O)c4cccc(F)c4-n4nccn4)C[C@H]3C2)nc(C(C)(C)O)c1F [Compound 11, (3-fluoro-2-(2H-1,2,3-triazol-2-yl)phenyl)((cis)-5-(5-fluoro-4-(2-hydroxypropan-2-yl)-6-methylpyrimidin-2-yl)hexahydropyrrolo [3,4-c]pyrrol-2(1H)-yl)methanone]",5.88,82.7,> 100,> 100,> 100,7.57,49,0.821,0.394,15

# From EP4588921A1, “FREE BASE CRYSTAL FORM OF POLYCYCLIC COMPOUND OF NITROGEN-CONTAINING HETEROCYCLE, AND PREPARATION METHOD THEREFOR” (Jiangsu Hansoh Pharmaceutical Group Co., Ltd., priority 2022, dated 2024)
